One molecule from patent US10927075B2, “Compositions and methods relating to the treatment of cancer, autoimmune disease, and neurodegenerative disease” (THE JACKSON LABORATORY, priority 2014, dated 2021) can be followed below.

SMILES strings stand for the structures. Entries after “also recorded” stand apart in the source; their conditions may differ.

For assay [1], the system named is MEC-1 cells. As to the kind of experiment: Viability of human B cell tumor cell line (Trypan Blue). It is filed as cell-based. Here is the method: FIG. 15A depicts an analysis of primary WT (AID+/+, closed markers) and AID−/− (open markers) murine B cell proliferation under activating conditions (αCD40 and IL-4 on days 0 and 2) and treated with the indicated doses of C-1523 for 4 days. Measurement of cell proliferation was determined by Trypan Blue staining and counting of viable, non-staining, cells via hemocytometer. Data are represented as the mean cell count for each condition. FIG. 15B depicts data from experiments in which primary B cells from A were stained with PI on day 4 and analyzed via flow cytometry for the percentage of cells that were non-viable, PI-positive (PI+). FIG. 15C depicts RT-PCR analysis of AID expression in cultured human cell lines. Water (H2O) and RNA from HEK293T cells were employed as negative controls for template and AID expression, respectively, and human activated B lymphocyte RNA (Stim B) was used as a positive control. GAPDH expression was included as a loading control. FIG. 15D depicts viability analysis of CCRF-SB, MEC-1, and MEC-2 cells after 6 days in culture with the indicated concentrations of C-1523, 150 μM DIDS, or DMSO vehicle. Viability was determined by Trypan Blue staining and counting via hemocytometer. FIG. 15E depicts representative immunofluorescence images of phosphorylated γH2AX (green) and nuclei (DAPI, blue) in primary murine splenic B cells from AID−/− (left) or AID+/+ (WT, right) mice. Cells were activated with αCD40 and IL-4 and treated with 100 nM C-1523 for 3 d. Scale bars, 10 μM. FIG. 15F depicts quantitation of foci observed in AID−/− and WT cells represented in FIG. 15E. Data were grouped into categories of cells with low (1-2 foci per nucleus), moderate (3-10 foci per nucleus), or high (>10 foci per nucleus) amounts of DNA damage. Error bars represent the SEM for three independent experiments.
FIG. 23 depicts graphs of viability analysis for human cancer cell lines treated with C-1523. The acute lymphoblastic leukemia (ALL) line CCRF-SB and the chronic lymphocytic leukemia lines MEC1 and MEC2 were treated with vehicle (DMSO) or 100 nM C-1523, and viability was measured by Tyrpan blue exclusion. All three lines express AID and are sensitive to C-1523 treatment.
The effect of C-1523 on the viability of AID-expressing human B cell tumor cell lines was further tested ([…]). CCRF-SB is an acute lymphoblastic leukemia cell line derived from a buffy coat preparation (Foley et al., 1968). MEC-1 and MEC-2 are cell lines derived from a patient with chronic lymphocytic leukemia at two different timepoints (before and after fludarabine and rituximab therapy) (Stacchini et al., 1999). C-1523 was tested in these cell lines over a dose range from 1 to 1000 nM, in log increments, and compared to 150 μM DIDS. […] Biphasic or hormetic responses for small molecules can reflect a number of biochemical/biological mechanisms (Calabrese, 2013).
Cell lines and cell culture. […] Immunofluorescence.

Assay [2] has as its system primary splenic B-cells from WT (AID-expressing) mice. As to the kind of experiment: Expansion and viability of activated primary splenic B-cells.

As to `CC(=O)Nc1ccc(/C=C/c2ccc(NC(=S)NC(C)C)cc2S(=O)(=O)O)c(S(=O)(=O)O)c1` [C-1523, (E)-5-acetamido-2-(4-(3-isopropylthioureido)-2-sulfonatostyryl)benzenesulfonate], the “sensitivity (viability)” value in assay [1] (100 nM) is listed as “sensitive”. The “viability reduction at highest dose” value in assay [1] (1000 nM) was “less than that observed after treatment with 100 nM”. Besides, the “concentration of greatest viability reduction” value in assay [1] (1 to 1000 nM) stood at 100 nM. For the same molecule, the “viability response over dose range” value in assay [1] (1 to 1000 nM, 6 days) is listed as “dose-dependent viability response”. The “dependence of induced cell death” value in assay [2] is “both AID and Trp53 dependent”. The “shape of dose response” value in assay [2] (1 to 1000 nM) is given as “biphasic response”. Further, in assay [2] (50, 100, 150, 200, or 250 nM, 3 days, Trypan blue), the B-cell viability result is “dose-dependent reduction in B-cell viability; also recorded: dose dependent reduction in B-cell viability”. For the same molecule, the cellular expansion result in assay [2] (50-250 nM, four days, αCD40+IL-4 activation) is “selectively suppressed cellular expansion”. The “PI+ cells (cell death)” value in assay [2] (day 4, flow cytometry) was “significant increase in PI+ cells”.
